Measurements from patent publication US12285392B2, “Method for modulating metabolism” (Brightseed, Inc., priority 2018, dated 2025).

Assays:
[1] = system: diet-induced obese mice; assay: Efficacy and tolerability in diet-induced obese mice; assay type: in vivo
Protocol: Alkaline Phosphatase (ALP) Quantitation. Increased levels of ALP in blood are considered indicative of liver function abnormalities. Thus, ALP was assayed in accordance with known methods (Kiselyuk, et al. (2012) Chem. Biol. 19(7):806-818). Briefly, prior to sacrifice, blood was drawn and analyzed using a Vet Scan blood analyzer, measuring alkaline phosphatase (ALP, IU/L), alanine aminotransferase (ALT, IU/L), gamma glutamyl transferase (GGT, IU/L), bile acids (BA, μmol/L), total bilirubin (TBIL, mg/dL), albumin (ALB, g/dL), blood urea nitrogen (BUN, mg/dL), and cholesterol (CHOL, mg/dL).
Triglyceride (TG) Quantitation. TG quantity was assayed using a Triglyceride Colorimetric Assay Kit (Cayman Chemicals; Ann Arbor, MI) according to the manufacturer's instructions.
Lipid Droplet Size Analysis. All slides were scanned at a magnification of 20× using the Aperio Scanscope FL system (Aperio Technologies Inc.; Vista, CA). The appropriate dyes were assigned and illumination levels were calibrated using a preset procedure; the parameters were saved and applied to all slides. The acquired digital images represented whole tissue sections. Sections were evaluated for image quality. All acquired images were subsequently placed in dedicated project folders, and stored on a designated local server. Selected areas of the slides were selected using Aperio Imagescope (version 12 Aperio Technologies Inc.). For analysis, slides were viewed, whole tissue areas were selected and analyzed using the web-based Image Scope viewer. Slides were quantified using the ‘Color Deconvolution v9’ algorithm for oil redo staining (version 11 Aperio Technologies Inc.). The algorithm was optimized using a preset procedure to maximize the strong red color positive oil droplets signal to noise ratio and the subsequent macro was saved and applied to all slides.
HNF4α Immunostaining in Organ Samples. Samples were harvested from mice, fixed in 4% paraformaldehyde and embedded in paraffin or O.C.T. freezing media (Sakura Finetek; Torrance, CA) Slides of 5 μm thickness were washed four times with PBS and treated with 0.3% Triton™ in PBS for 10 minutes. Antigen retrieval was carried out with CitriSolv™ (Fisher Scientific; Waltham, MA) for 10 minutes in sub-boiling temperature. After washing with PBS for 10 minutes, slides were incubated in blocking solution with 5% normal donkey serum (Jackson Immuno Research; West Grove, PA) for 60 minutes at room temperature. Cells were fixed in 4% paraformaldehyde for 15 minutes on 4° C. and washed with PBS, treated with 0.3% Triton™ in PBS for 10 minutes and blocked as previously described for slide samples.
Primary Antibodies. HNF4α antibodies were used (#sc-6556, Santa Cruz Biotechnology; Santa Cruz, CA and #3113, Cell Signaling Technology; Danvers, MA). For fluorescent imaging, samples were incubated with ALEXA FLOUR® 488 green-fluorescent dye or Rhodamine labeled anti-mouse, rabbit or goat and nuclei were counterstained with DAPI (4′,6-diamidino-2-phenylindole) Controls using secondary antibodies alone were used to ensure specificity of immunostaining. Fluorescently labeled sections were analyzed with a conventional inverted microscope (Olympus, PlanFl 40×/0.60) or with a confocal microscope equipped with a krypton/argon laser.
The experiments were performed to establish feeding and treatment regimen, dosing and administration regimens, as well as to provide evidence of beneficial effects of N-trans-caffeoyltyramine on glucose and lipid homeostasis, hepatic steatosis, β-cell function and hepatocyte function. Twelve mice (10 weeks old) were fed a high-fat diet for four weeks to induce obesity. After four weeks, and while on the high-fat diet, six mice were administered 5% DMSO or 120 mg/kg N-trans-caffeoyltyramine twice a day intraperitoneally for 14 days. One hour after the last i.p. injection of DMSO or N-trans-caffeoyl tyramine, the animals were sacrificed and blood and organ (liver, kidney, gut and pancreas) samples were collected. […]

[2] = pH stability assessment; assay type: physicochemical; settings: pH 2, 7.4, 8.5 and 10, 37° C., 0.5 and 72 hours
Protocol: pH Stability Assessment. Individual stock solutions were prepared in DMSO at concentrations of 10 mg/mL. Four different buffer solutions were prepared to achieve solutions with a pH of 2, 7.4, 8.5 and 10. For each pH assay, 5 μL of stock solution was added to 245 μL of buffered solution to a 2 mL tube, vortexed and incubated in a 37° C. water bath. At each timepoint, 50 μL aliquots were taken, neutralized and analyzed via HPLC analysis using a DAD detector at 280 nm. The fold change of the peak area at 280 nm was analyzed for the initial and final timepoint, 0.5 and 72 hours, respectively.

[3] = system: insulin mRNA; assay: Insulin mRNA levels by quantitative PCR; assay type: cell-based; settings: FIG. 2
Protocol: Expression of Insulin and HNF4α. RNA was purified using a RNEASY® chromatographic separation and isolation kits (Qiagen), and converted to cDNA using the gScript™ cDNA SuperMix (Quanta Biosciences). Q-PCR was conducted with cDNA corresponding to 2 μg of RNA using an Opticon Real-Time System (MJ Research) and QPCR SuperMix (BioPioneer). See All mRNA values were normalized to 18S rRNA values and are expressed as fold changes over vehicle-treated control.

[4] = Hepatic microsome stability assay, human; assay type: in vitro ADME
Protocol: Hepatic Microsome Assay. Hepatic microsomes stability assays were performed in accordance with known methods (Peddibhotla, et al. (2013) ACS Med. Chem. Lett. 4:846-851). Briefly, 3 μL of 25 μM compound solution in acetonitrile were incubated with 123 μL of mouse, human or rat liver microsomes (Xenotech, Kansas City, Kans.). […] The microsomal concentrations used were 1.0 mg/mL. Compounds were incubated in microsomes for 0, 5, 15, 30 and 60 minutes. The reactions were stopped by the addition of ice cold ACN and the reaction mixtures were centrifuged at 10,000 g for 10 minutes before the supernatant was removed for analysis. A 10 μL portion of the resulting extract was injected on a Thermo HPLC system equipped with PAL CTC plate sampler (96-well plate), Dionex Ultimate 3000 binary pump (flow rate at 0.600 mL/min), Dionex Ultimate 3000 thermostatted column compartment (temperature at 40° C.), Thermo Endura Mass Spectrometer (ESI source), using a Thermo Scientific Accucore C18 (2.6 μM, 2.1×50 mm) column. A gradient was run starting at 95% H2O (0.1% formic acid) and 5% ACN (0.1% formic acid) during the first 0.5 min, then under gradient condition of 5-100% ACN (0.1% formic acid) from minute 0.5 to 3.5, finishing at 95% H2O (0.1% formic acid) and 5% ACN (0.1% formic acid) over 0.5 min, with another 1 min at 95:5 to re-equilibrate.

With `O=C(/C=C/c1ccc(O)c(O)c1)NCCc1ccc(O)cc1` [N-trans-caffeoyltyramine] the “Lipid accumulation in the liver” value ([1]; 120 mg/kg twice a day i.p. for 14 days) was “decreased”, the “Weight loss, sickness or abnormal behaviors compared to control” value ([1]; 120 mg/kg twice a day i.p. for 14 days, high-fat diet mice) was “None of the treated mice exhibited weight loss, sickness, or abnormal behaviors” and the “Lipid droplet sizes in the liver” value ([1]; 120 mg/kg twice a day i.p. for 14 days, FIG. 8) was “reduced”. The “HNF4α expression in the liver” value ([1]; 120 mg/kg twice a day i.p. for 14 days, P=0.0042, FIG. 7) was “significantly increased”, the “HNF4α expression in intestines” value ([1]; FIG. 12) was “increased” and the “Levels of alkaline phosphatase” value ([1]; blood, 120 mg/kg twice a day i.p. for 14 days, FIG. 9) was “significantly reduced”. For the same compound, the “HNF4α expression in the pancreas” value ([1]; compared to DMSO control mice, FIG. 11) was “increased”, the Levels of triglycerides ([1]; liver, 120 mg/kg twice a day i.p. for 14 days, FIG. 10) was “significantly reduced” and the “pH Stability” value [2] was “Acid Stable”. For the same compound, the Insulin gene expression [3] was “upregulated”, the “Apparent major biotransformation pathway” value ([4]; human microsomes) was “oxidation of the left-hand aryl ring” and the “% Remaining” value ([4]; human microsomes, 1 μM) was 55.3%. For the same compound, the “% Remaining” value ([4]; human microsomes, 10 μM) was 85.4% and the “Stability in hepatic microsomes” value ([4]; human, rat and mouse hepatic microsomes) was “stable”.
